Source: patent US7141590B2, “Pharmaceutical uses and synthesis of nicotinanilide-N-oxides” (UCB SA, priority 2000, dated 2006)

T1: IL-8 type β receptor (IL-8Rβ) (Homo sapiens, UniProt P25025)
T1 construct: purchased BioSignal, Montreal, Canada; host or cells: Sf9 cells
T1 sequence (P25025 1-360): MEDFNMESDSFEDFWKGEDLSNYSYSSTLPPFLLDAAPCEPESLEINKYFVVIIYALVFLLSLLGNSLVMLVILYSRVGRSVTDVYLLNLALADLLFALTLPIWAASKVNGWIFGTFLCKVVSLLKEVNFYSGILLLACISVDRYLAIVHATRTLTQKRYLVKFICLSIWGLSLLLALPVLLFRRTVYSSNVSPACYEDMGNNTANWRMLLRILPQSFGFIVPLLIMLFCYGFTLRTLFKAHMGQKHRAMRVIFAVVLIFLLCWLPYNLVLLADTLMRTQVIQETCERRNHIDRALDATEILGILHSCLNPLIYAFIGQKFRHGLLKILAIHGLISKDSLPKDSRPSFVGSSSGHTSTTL

T2: human CXCR2 (IL8RB) chemokine receptor (Homo sapiens, UniProt P25025)
T2 construct: host or cells: CHO cells
T2 sequence (P25025 1-360): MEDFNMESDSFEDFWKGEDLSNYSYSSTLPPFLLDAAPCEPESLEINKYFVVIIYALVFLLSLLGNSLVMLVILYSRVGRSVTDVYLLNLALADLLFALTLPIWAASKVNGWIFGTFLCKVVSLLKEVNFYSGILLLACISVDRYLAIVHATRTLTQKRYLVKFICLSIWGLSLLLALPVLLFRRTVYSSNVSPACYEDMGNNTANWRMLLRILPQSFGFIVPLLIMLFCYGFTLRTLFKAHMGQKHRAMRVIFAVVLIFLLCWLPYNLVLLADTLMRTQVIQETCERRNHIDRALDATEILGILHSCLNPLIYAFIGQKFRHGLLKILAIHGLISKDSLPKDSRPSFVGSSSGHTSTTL

T3: human CXCR1 (IL8RA) chemokine receptor (Homo sapiens, UniProt P25024)
T3 construct: host or cells: CHO cells
T3 sequence (P25024 1-350): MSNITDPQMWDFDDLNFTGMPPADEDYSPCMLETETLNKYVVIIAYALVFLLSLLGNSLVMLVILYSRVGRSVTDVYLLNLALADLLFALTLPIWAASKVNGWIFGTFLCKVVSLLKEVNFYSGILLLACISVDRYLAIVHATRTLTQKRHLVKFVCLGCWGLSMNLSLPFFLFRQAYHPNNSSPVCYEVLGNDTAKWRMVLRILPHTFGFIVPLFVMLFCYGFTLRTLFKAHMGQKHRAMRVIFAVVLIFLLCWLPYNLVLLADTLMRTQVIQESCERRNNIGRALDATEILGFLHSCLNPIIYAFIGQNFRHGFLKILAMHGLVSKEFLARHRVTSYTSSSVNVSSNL


How the values were obtained:
[1] = test system: polymorphonuclear neutrophils (PMNs); experiment: GRO-α driven chemotaxis assay with PMNs (ChemoTx plate); format: cell-based; conditions: 20 μM compound; 50 nM GRO-α, human PMNs
Protocol: Peripheral blood from healthy human volunteers was collected into heparin, diluted in an equal volume of PBS, layered over Ficoll-Paque Plus (Pharmacia Biotech, Uppsala, Sweden), and spun at 400×g for 30 min. The PMN rich fraction was removed and residual erythrocytes were lysed with hypotonic saline. The polymorphonuclear neutrophils (PMNs) were washed once with assay buffer (Dulbecco's PBS containing divalent cations and 0.1% endotoxin-free BSA), and resuspended at 1E7 cells/mL in the same buffer. PMNs were loaded with 5 μM calcein AM (Molecular Probes, Eugene, Oreg.), washed twice and resuspended in assay buffer.
Growth Regulatory Oncogene a (GRO-α) driven chemotaxis assays were performed according to the following protocol. […] Test compounds were dissolved in DMSO (100%) at 20 mM and diluted in assay buffer to the desired concentrations; final DMSO concentration was 0.2%. Neutrophil migration proceeded for 40 min at 37° C. in a humidified incubator with 5% CO2. After removing nonmigrated cells from the top of the plate, migrated cells were quantified by reading fluorescence on a Wallac Victor.
The ratio of the positive to negative controls represents the chemotactic index of the cells. The results from this assay are reported in Tables 3–5, under the column headings IL-8 and GRO-α, and under the sub-column headings ChTx (for chemotaxis).

[2] = molecular target: T1, IL-8 type β receptor (IL-8Rβ); experiment: [125I] IL-8 binding assay (WGA-SPA beads, IL-8Rβ membranes); conditions: 20 uM compound; [125I] IL-8, IL-8Rβ membranes
Protocol: IL-8 (human recombinant) was obtained from NEN Life Science Products, Inc., Boston, Mass., with specific activity of 2200 Ci/mmol. Recombinant human IL-8 was obtained from R&D Systems, Minneapolis, Minn. IL-8 type β receptor membranes were prepared from […] co-expressed with Gαi3β1γ2 proteins by BioSignal™, Montreal, Canada. Wheat Germ Agglutinin Scintillation Proximity Assay Beads were obtained from Amersham Pharmacia Biotech, Piscataway, N.J. All assays were performed in a 96-well, solvent resistant, white PicoPlate obtained from Packard Instruments. […] The assay was initiated by the addition of WGA-SPA beads in 25 mM Hepes (pH 7.4) containing 2 mM CaCl2 and 1 mM MgCl2. After 4–6 hours of gentle agitation at room temperature, the plate was counted on the Packard TopCount liquid scintillation counter.

[3] = molecular target: T4, human chemokine CCR5 receptor (Homo sapiens, UniProt P51681); experiment: CCR5 assay ([125I]MIP-1β binding); conditions: 2 h; screened at 10 μM; Panlabs; read-out: CCR5 specific binding (%)
T4 construct: host or cells: CHO-K1-p242-CCR5 cells
T4 sequence (P51681 whole entry): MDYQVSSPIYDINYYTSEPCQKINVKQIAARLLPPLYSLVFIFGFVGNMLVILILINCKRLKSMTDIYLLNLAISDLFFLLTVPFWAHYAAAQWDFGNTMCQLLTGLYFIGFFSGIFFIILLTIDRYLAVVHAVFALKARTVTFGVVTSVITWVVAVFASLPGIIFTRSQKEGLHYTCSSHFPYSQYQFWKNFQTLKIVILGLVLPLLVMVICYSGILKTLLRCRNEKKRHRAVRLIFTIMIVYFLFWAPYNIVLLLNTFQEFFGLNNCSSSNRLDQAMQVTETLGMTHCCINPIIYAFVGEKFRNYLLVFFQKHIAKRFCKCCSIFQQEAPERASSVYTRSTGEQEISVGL
Protocol: This assay measures the binding of [^125I]MIP-1β to human chemokine CCR5 receptors. See Samson, M., et al., J. Biol. Chem. 272:24934–24941, 1997. In brief, CHO-K1-p242-CCR5 cells stably transfected with a plasmid encoding the human chemokine CCR5 receptor were used to prepare membranes in modified HEPES buffer at pH 7.4 using standard techniques. A 1 μg aliquot was incubated with 0.1 nM [^125I]MIP-1β for 120 minutes at 25° C. Non-specific binding was estimated in the presence of 0.1 μM MIP-1β. Membranes were filtered and washed 3 times and filters were counted to determine [^125I]MIP-1β specifically bound. Compounds were screened at 10 μM. The data obtained from this assay is reported in Table 6 (row titled “CCR5”), in terms of specific binding (%).

[4] = molecular target: T2, human CXCR2 (IL8RB) chemokine receptor; experiment: Panlabs CXCR2 filtermat binding assay ([125I]Interleukin-8); conditions: 1 h, screened at 10 μM, read-out: CXCR2 specific binding (%)
Protocol: Selected compounds were screened by Panlabs (Bothell Wash.) using their CXCR2 filtermat binding assay. This assay measures binding of [^125I]Interleukin-8 to human interleukin-CXCR2 (IL8RB) receptors and is also described in Ahuja, S. K. and Murphy, P. M., J. Biol. Chem. 271:20545–20550, 1996. In summary, CHO cells stably transfected with a plasmid encoding the human CXCR2 (IL8RB) chemokine receptor were used to prepare membranes in modified HEPES pH 7.4 buffer. A 2 μg aliquot of membrane was incubated with 15 pM [^125I]Interleukin-8 for 60 minutes at room temperature. Non-specific binding was estimated in the presence of 10 nM interleukin-8. Membranes were filtered and washed 3 times and the filters were counted to determine [^125I]Interleukin-8 specifically bound. Compounds were screened at 10 μM and results are reported in terms of Specific Binding (%) in Tables 3–5.
This assay measures binding of [^125I]Interleukin-8 to human interleukin-CXCR2 (IL8RB) receptors. See Ahuja, S. K. and Murphy, P. M., J. Biol. Chem. 271: 20545–20550, 1996, for details. In brief, CHO cells stably transfected with a plasmid encoding the human CXCR2 (IL8RB) chemokine receptor were used to prepare membranes in modified HEPES pH 7.4 buffer using standard techniques. A 2 μg aliquot of membrane was incubated with 15 pM [^125I]Interleukin-8 for 60 minutes at room temperature. Non-specific binding was estimated in the presence of 10 nM interleukin-8. Membranes were filtered and washed 3 times and the filters were counted to determine [^125I]Interleukin-8 specifically bound. Compounds were screened at 10 μM, with the results reported in Table 6 (row titled “CXCR2”) in terms of specific binding (%).

[5] = molecular target: T3, human CXCR1 (IL8RA) chemokine receptor; experiment: CXCR1 assay ([125I]Interleukin-8 binding); conditions: screened at 10 μM; Panlabs; read-out: CXCR1 specific binding (%)
Protocol: This assay measures binding of [^125I]Interleukin-8 to human interleukin-CXCR1 (ILR8A) receptors. See Ahuja, S. K. and Murphy, P. M. J. Biol. Chem. 271:20545–20550, 1996 for details. In brief, CHO cells stably transfected with a plasmid encoding the human CXCR1 (IL8RA) chemokine receptor were used to prepare membranes in modified HEPES pH 7.4 buffer using standard techniques. A 5 μg aliquot of membrane was incubated with 8 pM [^125I]Interleukin-8 for 60 minutes at room temperature. Non-specific binding was estimated in the presence of 10 nM interleukin-8. Membranes were filtered and washed 3 times and the filters were counted to determine [^125I]Interleukin-8 specifically bound. Compounds were screened at 10 μM, with the data reported in Table 6 (row titled “CXCR1”) in terms of specific binding (%).

[6] = molecular target: T4, human chemokine CCR5 receptor; conditions: CCR5 reference data; cited from earlier work

Molecule	GRO-α ChTx @ 20 μM, % [1]	IL-8 Binding @ 20 uM, % [2]	further results
O=C(NC(c1ccccc1)c1ccccc1)c1ccc(Cl)[n+]([O-])c1	** (“**” for % values greater than 40)	* (“*” for % values of less than or equal to 40)	–
O=C(Nc1ccccc1F)c1ccc(Cl)[n+]([O-])c1	** (“**” for % values greater than 40)	* (“*” for % values of less than or equal to 40)	–
O=C(Nc1ccc(I)cc1)c1ccc(Cl)[n+]([O-])c1	** (“**” for % values greater than 40)	* (“*” for % values of less than or equal to 40)	–
CC(C)(C)c1ccc(NC(=O)c2ccc(Cl)[n+]([O-])c2)cc1	** (“**” for % values greater than 40)	* (“*” for % values of less than or equal to 40)	–
CCOc1cccc(NC(=O)c2ccc(Cl)[n+]([O-])c2)c1	C*	* (“*” for % values of less than or equal to 40)	–
NC(=O)c1cccc(NC(=O)c2ccc(Cl)[n+]([O-])c2)c1	* (“*” for % values of less than or equal to 40)	* (“*” for % values of less than or equal to 40)	–
O=C(NCc1ccccc1)c1ccc(Cl)[n+]([O-])c1	* (“*” for % values of less than or equal to 40)	* (“*” for % values of less than or equal to 40)	–
O=C(NCc1ccc(F)cc1)c1ccc(Cl)[n+]([O-])c1	* (“*” for % values of less than or equal to 40)	* (“*” for % values of less than or equal to 40)	–
O=C(NC1CCCC1)c1ccc(Cl)[n+]([O-])c1	* (“*” for % values of less than or equal to 40)	* (“*” for % values of less than or equal to 40)	–
O=C(NCc1ccco1)c1ccc(Cl)[n+]([O-])c1	* (“*” for % values of less than or equal to 40)	* (“*” for % values of less than or equal to 40)	–
O=C(Nc1ccc(F)cc1)c1ccc(Cl)[n+]([O-])c1 [Cl—, 6-Chloro-N-(4-fluoro-phenyl)-1-oxy-nicotinamide]	** (“**” for % values greater than 40)	**(1) (“**” for % values greater than 40)	–
CS(=O)(=O)c1ccc(C(=O)Nc2ccc(F)cc2)c[n+]1[O-] [drawing 44]	** (“**” for % values greater than 40)	** (“**” for % values greater than 40)	–
O=C(Nc1ccc(F)cc1)c1ccc(S(=O)(=O)c2ccccc2)[n+]([O-])c1 [drawing 47]	** (“**” for % values greater than 40)	** (“**” for % values greater than 40)	–
CCS(=O)(=O)c1ccc(C(=O)Nc2ccc(F)cc2)c[n+]1[O-] [drawing 49]	** (“**” for % values greater than 40)	** (“**” for % values greater than 40)	–
CCCS(=O)(=O)c1ccc(C(=O)Nc2ccc(F)cc2)c[n+]1[O-] [drawing 51]	** (“**” for % values greater than 40)	** (“**” for % values greater than 40)	–
O=C(Nc1ccc(F)cc1)c1ccc(S(=O)(=O)Cc2ccccc2)[n+]([O-])c1 [drawing 52]	** (“**” for % values greater than 40)	** (“**” for % values greater than 40)	–
O=C(Nc1ccc(F)cc1)c1ccc(S(=O)(=O)C2CCCC2)[n+]([O-])c1 [drawing 53]	** (“**” for % values greater than 40)	** (“**” for % values greater than 40)	–
O=C(Nc1ccc(F)c(F)c1)c1ccc(Cl)[n+]([O-])c1 [drawing 70]	** (“**” for % values greater than 40)	* (“*” for % values of less than or equal to 40)	–
O=C(Nc1ccc(F)c(F)c1)c1ccc(Cl)[n+]([O-])c1 [drawing 135]	–	–	remaining activity at 10 µM [3]: ≤ 40%; remaining activity at 10 µM [4]: > 40%; remaining activity at 10 µM [5]: ≤ 40%
MIP-1α: microphage inflammatory protein	–	–	IC50 [6]: 0.039 nM; Ki [6]: 0.03 nM; nH [6]: 0.8
RANTES: regulated on activation of normal T-cell expressed and secreted	–	–	IC50 [6]: 0.012 nM; Ki [6]: 0.0093 nM; nH [6]: 0.9
MIP-1β: microphage inflammatory protein; standard reference agent used in CCR5 assay (protein, UniProt P13236 24-92, looked up, ends and bridges not checked) C-C motif chemokine 4: APMGSDPPTACCFSYTARKLPRNFVVDYYETSSLCSQPAVVFQTKRSKQVCADPSESWVQEYVYDLELN	–	–	IC50 [6]: 0.074 nM; Ki [6]: 0.057 nM; nH [6]: 0.9
